Source: publication PMC12257397, “Scaffold Hopping Strategy toward New 4‑Aminoquinazolines Active Against Extracellular and Intracellular Mycobacterium tuberculosis” (ACS Medicinal Chemistry Letters, 2025)
In brackets after ≈: the same amount, converted by molar mass. Like-named read-outs stand apart in the source and are kept apart here.

Key:
[1] = tested on: M. tuberculosis H37Rv (ATCC 27294); assay: MIC by resazurin reduction microplate assay (REMA); type: cell-based; conditions: Mycobacterium tuberculosis, converted from μg/mL to μM
in vitro [2] = conditions: human
in vitro [3] = conditions: human; remark: listed apart in the source
[4] = tested on: M. tuberculosis H37Rv-LP (ATCC 25618); assay: microbe, parasite or virus in culture; type: cell-based; conditions: concentration inhibiting 90% of growth, 5 days, read-out: MIC parental wild-type strain H37Rv-LP
in vitro [5] = conditions: human; remark: listed apart in the source
[6] = tested on: Staphylococcus aureus (ATCC 29213); assay: Antimicrobial spectrum MIC, S. aureus; type: cell-based
[7] = tested on: Mycobacterium avium 2285R (rough); assay: Antimicrobial spectrum MIC, M. avium rough; type: cell-based
[8] = Microsomal stability, mouse liver microsomes (MLM); type: in vitro ADME; conditions: male, BALB/c, pH 7.4
Procedure: (§1) 1.5. Microsomal stability
(§2) Test compound (6 μM) was incubated at 37 °C with male BALB/c mouse liver microsomes or mixed gender human liver microsomes (Xenotech LLC; 0.5 mg /mL, […] potassium phosphate buﬀer, pH 7.4) and the reaclon started with addilon of excess NADPH (2 mM, pH 7.4). Samples (35 µL) were removed at lme 0, 5, 10, 20, 30, and 60 min and mixed with 35 µL of acetonitrile, methanol, wate r s o l u lon (2:1:1) containing […] internal standard terfenadine and 0.05% v/v acelc acid. The samples were centrifuged at 4000 rpm for 10 min and the supernatant was analyzed using a 1100 HPLC and Single Quad 6120 (Agilent, USA). Compounds were tested in duplic ate, and an exponenlal decay curve ﬁt was used on the ralo of peak area of test compound to internal standard at each lme point to calculate the rate constant (k). The rate of intrinsic clearance (CLint) of each test compound was then calculated using the following equalon: CLint (mL/min/mg) = k x V where V was mL/mg protein. Verapamil (6 μM) was used as a posilve control. Incubalon of each compound with microsomes in the absence of NADPH and analyzed at 0 and 60 min was used as the negalve control.
(§3) The human biological samples were sourced ethically, and their research use was in accord with the terms of the informed consents.

[9] = tested on: Mycobacterium abscessus 103R; assay: Antimicrobial spectrum MIC, M. abscessus; type: cell-based
[10] = tested on: H37Rv-LP (ATCC 25618) inside THP-1 cells; assay: microbe, parasite or virus in culture; type: cell-based; conditions: Mycobacterium tuberculosis, 72 hours
Escherichia coli RFM 795 = assay: Antimicrobial spectrum MIC, E. coli; type: cell-based; conditions: Escherichia coli RFM 795 (lptD mutation)
[11] = tested on: Mycobacterium smegmatis mc2155; type: cell-based
[12] = tested on: Mycobacterium avium 2285S (smooth); assay: Antimicrobial spectrum MIC, M. avium smooth; type: cell-based
[13] = Microsomal stability, human liver microsomes (HLM); type: in vitro ADME; conditions: both sexes, pH 7.4
Procedure: as §1, §2, §3

[14] = Mycobacterium tuberculosis, 120 h

Molecule `Cc1nc(NCCc2ccc(S(N)(=O)=O)cc2)c2cc(Br)ccc2n1` [14c] has an MIC [1] greater than 94.9 µM.
`Cc1nc(NCCc2ccc(S(N)(=O)=O)cc2)c2cc(I)ccc2n1` [14d] gave an MIC [1] greater than 85.4 µM.
Molecule `NS(=O)(=O)c1ccc(CCNc2ncnc3ccccc23)cc1` [14e] has an MIC [1] greater than 122 µM.
In the case of `Cc1ccc(CCNc2nc(C)nc3ccccc23)cc1` [15a], the MIC [1] is reported as 18 µM (≈ 4.99 µg/mL).
Molecule `COc1ccc2nc(C)nc(NCCc3ccc(C)cc3)c2c1` [15b] has an MIC [1] of 16.3 µM (≈ 5.01 µg/mL).
`Cc1ccc(CCNc2nc(C)nc3ccc(Br)cc23)cc1` [15c] gave an MIC [1] of 7 µM (≈ 2.49 µg/mL).
Work on `Cc1ccc(CCNc2nc(C)nc3ccc(I)cc23)cc1` [15d] yielded an MIC [1] of 3.1 µM (≈ 1.25 µg/mL), a CC50 at 72 h (in vitro [2]) of 10.2 µM and a CC50 at 72 h (in vitro [3]; CC50 HepG2+Gal) of 6.6 µM. It also gave a CC50 at 72 h (in vitro [3]; CC50 HepG2+Glu) of 11.4 µM, an MIC [4, 14] of 0.48 µM (≈ 0.194 µg/mL) and a CC50 at 72 h (in vitro [5]) of 10.6 µM.
With `Cc1ccc(CCNc2ncnc3ccccc23)cc1` [15e] the MIC [1] was greater than 38 µM.
`CCc1ccc(CCNc2nc(C)nc3ccccc23)cc1` [16a] showed an MIC [1] of 17.2 µM (≈ 5.01 µg/mL).
With `CCc1ccc(CCNc2nc(C)nc3ccc(OC)cc23)cc1` [16b] the MIC [1] was 15.6 µM (≈ 5.01 µg/mL).
Molecule `CCc1ccc(CCNc2nc(C)nc3ccc(Br)cc23)cc1` [16c] has an MIC [1] of 6.8 µM (≈ 2.52 µg/mL), a CC50 at 72 h (in vitro [3]; CC50 HepG2+Gal) of 1.6 µM and a CC50 at 72 h (in vitro [3]; CC50 HepG2+Glu) of 4 µM. It also gave an MIC [4, 14] of 2 µM (≈ 0.741 µg/mL) and an MIC [4] of 2.0 µM (≈ 0.741 µg/mL).
Work on `CCc1ccc(CCNc2nc(C)nc3ccc(I)cc23)cc1` [16d] yielded an MIC [1] of 6 µM (≈ 2.5 µg/mL), a CC50 at 72 h (in vitro [2]) of 8.3 µM and a CC50 at 72 h (in vitro [3]; CC50 HepG2+Gal) of 5.3 µM. The CC50 at 72 h (in vitro [3]; CC50 HepG2+Glu) was 7.4 µM, the MIC [4, 14] was 1.9 µM (≈ 0.793 µg/mL) and the CC50 at 72 h (in vitro [5]) was 8.3 µM.
For `CCc1ccc(CCNc2ncnc3ccccc23)cc1` [16e], the MIC [1] was 36 µM (≈ 9.99 µg/mL).
In the case of `Cc1nc(NCCc2ccc3ccccc3c2)c2ccccc2n1` [17a], the MIC [1] is reported as 8 µM (≈ 2.51 µg/mL).
Molecule `COc1ccc2nc(C)nc(NCCc3ccc4ccccc4c3)c2c1` [17b] has an MIC [1] of 7.3 µM (≈ 2.51 µg/mL).
Molecule `Cc1nc(NCCc2ccc3ccccc3c2)c2cc(Br)ccc2n1` [17c] has an MIC [1] of 3.2 µM (≈ 1.26 µg/mL), a CC50 at 72 h (in vitro [2]) of less than 1 µM and a CC50 at 72 h (in vitro [3]; CC50 HepG2+Gal) of 1.8 µM. For the same molecule, the CC50 at 72 h (in vitro [3]; CC50 HepG2+Glu) was 4.6 µM, the MIC [4, 14] was 2.5 µM (≈ 0.981 µg/mL) and the CC50 at 72 h (in vitro [5]) was less than 1 µM.
With `Cc1nc(NCCc2ccc3ccccc3c2)c2cc(I)ccc2n1` [17d] the MIC [1] was 1.4 µM (≈ 0.615 µg/mL), the CC50 at 72 h (in vitro [3]; CC50 HepG2+Gal) was 5.2 µM and the CC50 at 72 h (in vitro [3]; CC50 HepG2+Glu) was 7.1 µM. For the same molecule, the MIC [4, 14] was 1.4 µM (≈ 0.615 µg/mL).
With `c1ccc2cc(CCNc3ncnc4ccccc34)ccc2c1` [17e] the MIC [1] was greater than 16.7 µM.
With `Cc1nc(NCCCc2ccccc2)c2ccccc2n1` [18a] the MIC [1] was 4.5 µM (≈ 1.25 µg/mL), the CC50 at 72 h (in vitro [3]; CC50 HepG2+Gal) was 2.6 µM and the CC50 at 72 h (in vitro [3]; CC50 HepG2+Glu) was 7.7 µM. It also gave an MIC [4, 14] of 1.6 µM (≈ 0.444 µg/mL) and an MIC [4] of 1.6 µM (≈ 0.444 µg/mL).
For `COc1ccc2nc(C)nc(NCCCc3ccccc3)c2c1` [18b], the MIC [1] was 4.1 µM (≈ 1.26 µg/mL), the “CIM 29213” value [6] was greater than 100 µM and the “CIM 2285R” value [7] was greater than 100 µM. For the same molecule, the microsomal CLint at 6 μM ([8]; mouse, microsomes) was 530 µL/min/mg, the remaining at 10 min, 6 μM ([8]; mouse, microsomes) was 7% and the half-life at 6 μM ([8]; mouse liver microsomes, read-out: MLM t1/2) was 2.6 min. The “CIM 103R” value [9] was greater than 100 µM, the IC50 ([10]; growth of H37Rv-LP inside THP-1 cells inhibited by 50%, read-out: Intracellular IC50) was 0.84 µM and the IC90 ([10]; growth of H37Rv-LP inside THP-1 cells inhibited by 90%, read-out: Intracellular IC90) was 1.9 µM. For the same molecule, the CC50 at 72 h (in vitro [2]) was greater than 20 µM, the CC50 at 72 h (in vitro [3]; CC50 HepG2+Gal) was 11 µM and the CC50 at 72 h (in vitro [3]; CC50 HepG2+Glu) was 13.9 µM. For the same molecule, the MIC [4, 14] was 1.5 µM (≈ 0.461 µg/mL), the “CIM RFM 795” value (Escherichia coli RFM 795) was 54 µM and the CC50 at 72 h (in vitro [5]) was 17 µM. For the same molecule, the “CIM mc2155” value [11] was greater than 32.5 µM, the “CIM 2285S” value [12] was greater than 100 µM and the microsomal CLint at 6 μM ([13]; human, microsomes) was 252 µL/min/mg. For the same molecule, the remaining at 20 min, 6 μM ([13]; human, microsomes) was 8% and the half-life at 6 μM ([13]; human liver microsomes, read-out: HLM t1/2) was 5.5 min.
Molecule `c1ccc(CCCNc2ncnc3ccccc23)cc1` [18e] has an MIC [1] of 19 µM (≈ 5 µg/mL), a CC50 at 72 h (in vitro [2]) of less than 1 µM and a CC50 at 72 h (in vitro [3]; CC50 HepG2+Gal) of 2.5 µM. It also gave a CC50 at 72 h (in vitro [3]; CC50 HepG2+Glu) of 10.9 µM, an MIC [4, 14] of 24 µM (≈ 6.32 µg/mL) and a CC50 at 72 h (in vitro [5]) of less than 1 µM.
With `NNC(=O)c1ccncc1` [19 (INH), isoniazid, reference compound] the MIC [1] was 2.3 µM (≈ 0.315 µg/mL).
With `CO[C@H]1/C=C/O[C@@]2(C)Oc3c(C)c(O)c4c(O)c(c(/C=N/N5CCN(C)CC5)c(O)c4c3C2=O)NC(=O)/C(C)=C\C=C\[C@H](C)[C@H](O)[C@@H](C)[C@@H](O)[C@@H](C)[C@H](OC(C)=O)[C@@H]1C` [20 (RIF), rifampicin, reference compound] the MIC [4, 14] was 0.03 µM (≈ 0.0247 µg/mL) and the “CIM mc2155” value [11] was 48.6 µM.
`CN[C@@H]1C[C@H]2O[C@@](C)([C@@H]1OC)n1c3ccccc3c3c4c(c5c6ccccc6n2c5c31)C(=O)NC4` [21 (STA), staurosporine, reference compound] showed a CC50 (in vitro [3]; CC50 HepG2+Gal) of 0.04 µM and a CC50 (in vitro [3]; CC50 HepG2+Glu) of 0.03 µM.
With `CC[C@H]1OC(=O)[C@H](C)[C@@H](O[C@H]2C[C@@](C)(OC)[C@@H](O)[C@H](C)O2)[C@H](C)[C@@H](O[C@@H]2O[C@H](C)C[C@H](N(C)C)[C@H]2O)[C@](C)(OC)C[C@@H](C)C(=O)[C@H](C)[C@@H](O)[C@]1(C)O` [25 (CLA), Clarithromycin, reference compound] the “CIM 2285R” value [7] was 1.4 µM, the “CIM 103R” value [9] was 0.5 µM and the “CIM 2285S” value [12] was 0.4 µM.
In the case of `CN[C@H](CC(C)C)C(=O)N[C@H]1C(=O)N[C@@H](CC(N)=O)C(=O)N[C@H]2C(=O)N[C@H]3C(=O)N[C@H](C(=O)N[C@H](C(=O)O)c4cc(O)cc(O)c4-c4cc3ccc4O)[C@H](O)c3ccc(c(Cl)c3)Oc3cc2cc(c3O[C@@H]2O[C@H](CO)[C@@H](O)[C@H](O)[C@H]2O[C@H]2C[C@](C)(N)[C@H](O)[C@H](C)O2)Oc2ccc(cc2Cl)[C@H]1O` [26 (VAN), Vancomycin, reference compound], the “CIM 29213” value [6] is reported as 2.9 µM.
For `CC1(C)S[C@@H]2[C@H](NC(=O)[C@H](N)c3ccccc3)C(=O)N2[C@H]1C(=O)O` [27 (AMP), Ampicillin, reference compound], the “CIM RFM 795” value (Escherichia coli RFM 795) was 12.0 µM.
